Values joined by “and” are separate entries in the source; they are usually repeats but may differ in a detail not shown here. Identical values can stand only once.
System: IL10
Assay: Plasma cytokine concentration, Pointilliste Human Th1/Th2 Cytokine Canvas
Type: in vivo
Details: OXY = oxycodone QID, BID/QID = combination drug of oxycodone and naltrexone BID/QID
Experimental: Plasma samples from selected subjects in the clinical study were used to assay for the presence and concentration of selected cytokines.
Plasma samples were analyzed using a commercial cytokine assay from Pointilliste (www.pointilliste.com) to quantify the concentrations of IL2, IL4, IL5, IL6, IL10, IL13, GM-CSF, interferon and TNFα. Plasma samples were separately analyzed for IL1αand IL1β, which were quantitated using a conventional cytokine assay by Pointilliste. The cytokine assay for the quantitation of IL2, IL4, IL5, IL6, IL10, IL13, GM-CSF, interferon and TNFα employed, Pointilliste's Human Th1/Th2 Cytokine Canvas product which contains binding sites for each of these nine cytokines.
Two measurements (duplicates) for each cytokine were possible for each plasma sample applied to a canvas, since the canvas has two binding sites for each cytokine.
Fifty-seven frozen human plasma samples containing EDTA as an anticoagulant were thawed on ice and transferred to a sterile 96-deep well polypropylene plate. The plate was centrifuged briefly at 4° C. to clarify the plasma. Aliquots of clarified plasma were removed for cytokine analysis, and the remaining samples in the 96-deep well polypropylene plate were stored at −80° C.
The aliquots of clarified plasma were transferred to sterile non-protein binding 96-well polypropylene plates to enable parallel processing of the samples. Two different 96 well plates were used, and each received a subsample of the aliquots at different dilutions. Two dilutions (1 in 1 and 1 in 10) of each sample were assayed on two separate human Th1/Th2 cytokine canvases. In order to quantify the cytokine concentrations, standard curves were generated for each dilution. A mixture of 9 cytokines was run on each of the canvases and used to calculate a standard curve, which was used to determine the amount of each cytokine in the samples. The standard curves were plotted with the signal intensity as a function of the cytokine concentration in ng/ml. A CCD camera was used with Pointilliste's Canvas Analysis Tools software to generate data corresponding to cytokine concentrations.

## COc1ccc2c3c1O[C@H]1C(=O)CC[C@@]4(O)[C@@H](C2)N(C)CC[C@]314 [OXY QID, oxycodone]
Individual measurements of plasma samples, listed as OXY
  IL10 cytokine concentration: 0.07237 ng/mL and 0.2164 ng/mL and 0.2235 ng/mL and 0.2438 ng/mL and 0.2959 ng/mL and 0.3757 ng/mL and 0.9598 ng/mL and 1.236 ng/mL and 1.26 ng/mL and 1.394 ng/mL
Treatment group mean, random sample of subjects
  Mean of IL10 concentrations: 0.628 ng/mL

Reference: patent publication US20060009478A1, “Methods for the treatment of back pain” (priority 2003, published 2006)
